According to the NIST ThermoML archive (doi:10.1016/j.jct.2016.02.016):
± gives the expanded uncertainty stated by the source.

Columns and labels:
[1] = xn = mol fraction of the nth substance listed; conditions: 303.15 K, 100 kPa, Liquid; for speed of sound: Frequency=3 MHz, Sing-around technique in a fixed-path interferometer; for mass density: Vibrating tube method
[2] = refractive index (Na D-line) (dimensionless); xn = mol fraction of the nth substance listed; conditions: 100 kPa, Liquid, Standard Abbe refractometry

CC(C)=O [acetone] + CN(C)C=O
[1]
Conditions | mass density [kg/m3] | speed of sound [m/s]
x2 = 0 | 778.63 ± 1.9 | 1139.9 ± 1.1
x2 = 0.0571 | 789.325 ± 1.9 | 1159 ± 1.2
x2 = 0.1075 | 798.734 ± 1.9 | 1175.8 ± 1.3
x2 = 0.148 | 805.999 ± 2 | 1188.9 ± 1.3
x2 = 0.2001 | 815.316 ± 2 | 1205.7 ± 1.3
x2 = 0.2528 | 824.518 ± 2 | 1222.4 ± 1.3
x2 = 0.3003 | 832.657 ± 2 | 1237.3 ± 1.3
x2 = 0.3487 | 840.866 ± 2 | 1252.5 ± 1.3
x2 = 0.392 | 848.12 ± 2.1 | 1265.8 ± 1.3
x2 = 0.4547 | 858.369 ± 2.1 | 1284.8 ± 1.3
x2 = 0.4991 | 865.505 ± 2.1 | 1298.1 ± 1.4
x2 = 0.5422 | 872.357 ± 2.1 | 1310.9 ± 1.4
x2 = 0.6046 | 882.041 ± 2.1 | 1329.2 ± 1.4
x2 = 0.6507 | 889.133 ± 2.1 | 1342.6 ± 1.4
x2 = 0.6986 | 896.27 ± 2.2 | 1356.3 ± 1.4
x2 = 0.7493 | 903.843 ± 2.2 | 1370.7 ± 1.4
x2 = 0.7975 | 910.848 ± 2.2 | 1384.2 ± 1.4
x2 = 0.8442 | 917.613 ± 2.2 | 1397.1 ± 1.4
x2 = 0.8972 | 925.06 ± 2.2 | 1411.5 ± 1.5
x2 = 0.9411 | 931.137 ± 2.2 | 1423.4 ± 1.5

refractive index, [2]
Conditions | 293.15 K | 298.15 K
x2 = 0 | 1.35845 ± 0.0041 | 1.35386 ± 0.0041
x2 = 0.05 | – | 1.35901 ± 0.0041
x2 = 0.0503 | 1.36286 ± 0.0041 | –
x2 = 0.1057 | 1.3677 ± 0.0041 | –
x2 = 0.127 | – | 1.3664 ± 0.0041
x2 = 0.1485 | – | 1.36834 ± 0.0041
x2 = 0.1529 | 1.37155 ± 0.0041 | –
x2 = 0.1908 | – | 1.37223 ± 0.0041
x2 = 0.1992 | 1.37532 ± 0.0041 | –
x2 = 0.2475 | 1.37922 ± 0.0042 | –
x2 = 0.2492 | – | 1.37711 ± 0.0041
x2 = 0.297 | – | 1.38103 ± 0.0042
x2 = 0.2981 | 1.38311 ± 0.0042 | –
x2 = 0.3399 | – | 1.38441 ± 0.0042
x2 = 0.3458 | 1.38685 ± 0.0042 | –
x2 = 0.3942 | 1.3905 ± 0.0042 | –
x2 = 0.3997 | – | 1.38893 ± 0.0042
x2 = 0.4461 | – | 1.39235 ± 0.0042
x2 = 0.4516 | 1.39472 ± 0.0042 | –
x2 = 0.4973 | 1.398 ± 0.0042 | –
x2 = 0.4978 | – | 1.39595 ± 0.0042
x2 = 0.5476 | 1.40156 ± 0.0042 | –
x2 = 0.549 | – | 1.39951 ± 0.0042
x2 = 0.5893 | – | 1.40233 ± 0.0042
x2 = 0.599 | 1.40511 ± 0.0042 | –
x2 = 0.6413 | – | 1.40581 ± 0.0042
x2 = 0.6521 | 1.40867 ± 0.0042 | –
x2 = 0.6822 | – | 1.40851 ± 0.0042
x2 = 0.7051 | 1.41226 ± 0.0043 | –
x2 = 0.7435 | – | 1.41236 ± 0.0043
x2 = 0.7538 | 1.41537 ± 0.0043 | –
x2 = 0.7945 | – | 1.41552 ± 0.0043
x2 = 0.8063 | 1.41877 ± 0.0043 | –
x2 = 0.8342 | – | 1.41805 ± 0.0043
x2 = 0.8441 | 1.42113 ± 0.0043 | –
x2 = 0.8801 | – | 1.4209 ± 0.0043
x2 = 0.9022 | 1.42474 ± 0.0043 | –
x2 = 0.9377 | – | 1.42451 ± 0.0043
x2 = 0.9471 | 1.42742 ± 0.0043 | –
